Data from patent US4432973A, “Benzoyl- and α-hydroxybenzyl-phenyl-glycosides and application thereof in therapeutics” (Societe de Recherches Industrielles (S.O.R.I.), priority 1980, dated 1984).

Columns and labels:
[1] = Acute toxicity in the mouse by the I.P. route; format: in vivo; settings: for LD50: read-out: DL-50 (lethal dose involving the death of half of the animals)
Text: The acute toxicity was studied in the mouse by the I.P. route. It is expressed in the form of DL-50 (lethal dose involving the death of half of the animals) or DL-0 (maximum non-lethal dose).

[2] = Veinous thrombosis: veinous anti-thrombus activity; format: in vivo; settings: Rattus norvegicus, ip, 100 mg/kg I.P., 4 to 5 hours after administration, read-out: Diminution of veinous thrombus
Procedure: The technique used is similar to the one described by Peterson-Zucker in Thrombo.Diath.Haemorh. 23, 1, (1970).
An occlusive thrombus is created in the […] vena cava of a rat by the combined action of an endothelial alteration and a veinous stasis for 15 mins. and 4 to 5 hours after administration of the product to be tested (100 mg/kg I.P.).

[3] = Anti-hypoxic activity: survival to hypoxia (nitrogen-oxygen 95:5); format: in vivo, mouse (Swiss male); settings: I.P., 1/10th of LD-50 or 100 mg/kg when LD-0 ≥ 800 mg/kg; up to 15 minutes; mouse
Procedure: The experiment is carried out on batches of 20 Swiss male mice weighing from 20 to 30 g. Each product to be tested is administered to the mice by intraperitoneal route at a dose corresponding to 1/10th of the LD-50 or at a dose of 100 mg/kg when the LD-0 is higher than or equal to 800 mg/kg. The mice are placed in a nitrogen-oxygen (95:5) v/v atmosphere. The survival time of the mice is then measured up to 15 minutes maximum.
The results shown in Table VII are expressed in percentage of survival with respect to a non-treated control batch and a batch treated with an anti-hypoxic reference product [specialty known under the trade name of "Duxil" and which is constituted by a mixture of Almitrine bis-methanesulfonate and of Raubasine in the weight ratio 3:1], the anti-hypoxic reference product being administered at the dose of 18 mg/kg I.P.

[4] = Anti-ulcer activity: ulcer caused by aspirin; format: in vivo, rat (male Wistar); settings: 100 mg/kg I.P.; aspirin 192 mg/kg per os; standardised to control batch and cimetidine (index 1)
Procedure: The experiment is carried out on male Wistar rats of 180 to 200 g. The products to be tested are administered at 100 mg/kg I.P. (unless indicated to the contrary in Table IV).
At t=0, the rats are made to fast and a first administration of the product to be tested is made.
At t=18 hours, 2 ml of an ulcer-forming suspension with 192 mg of aspirin/kg are administered per os then a second administration of the product to be tested is made.
At t=22 hours, the animals are sacrificed and the ulcers are marked as follows: small point-like ulcers: mark 1 more extensive ulcers: mark 3 highly extensive or very deep ulcers: mark 9
This marking is standardised with respect to a control batch and to cimetidine (a reference product) to which index 1 has been allocated.

[5] = tested on: blood platelet aggregation; test: Spontaneous aggregation: blood platelet anti-aggregation activity; format: in vivo, rat (adult male); settings: t=5 hours, rat; for inhibition in vivo at 100 mg/kg: ip, 100 mg/kg I.P.
Procedure: The technique used is that of Sanders described in Laboratory Animal Science 27 (No. 5), pages 757-761 (1977).
After administration at 100 mg/kg I.P. (unless specified to the contrary in Table V hereinbelow) of the product to be tested to adult male reproducing rats, two blood samples are taken, one on sodium citrate and the other on sodium citrate treated with formaldehyde at instant t=5 hours.
After centrifugation of the samples, a platelet count is made on the supernatant liquid. The spontaneous aggregation index according to Wu and Hook Stroke 6, 521-524 (1975) is expressed by the relation: [formula]

SMILES | inhibition in vivo at 100 mg/kg [2] | Survival (survival percentage to hypoxic aggression) [3] | LD50 ([1]; in vivo, ip, I.P.) | Ulcer index [4] | DL-0 (maximum non-lethal dose) ([1]; I.P.) | further results
O=C(c1ccc(Cl)cc1)c1ccc(O[C@@H]2OC[C@@H](O)[C@H](O)[C@H]2O)cc1 [Example 3] | 30 to 49% | +++ (higher than or equal to 80%) | – | – | – | DL-0 (maximum non-lethal dose) ([1]; in vivo, ip): > 800 mg/kg IP
Cc1ccccc1C(=O)c1cc(C)c(O[C@@H]2OC[C@@H](O)[C@H](O)[C@H]2O)c(C)c1 [Example 21] | – | – | 600 mg/kg | 0.16 | – | inhibition in vivo at 100 mg/kg ([5]; Platelet): ≥ 40%
O=C(c1ccccc1)c1cccc(O[C@@H]2OC[C@@H](O)[C@H](O)[C@H]2O)c1 [Example 45] | 30 to 49% | – | – | 1.11 | > 800 mg/kg IP | –
CC(=O)O[C@@H]1[C@@H](OC(C)=O)[C@H](Oc2ccc(C(=O)c3ccccc3C)cc2)OC[C@H]1OC(C)=O [Example 69] | 30 to 49% | – | 900 mg/kg | 0.78 | – | –
CC(=O)O[C@@H]1[C@@H](OC(C)=O)[C@H](Oc2ccc(C(=O)c3ccccc3Cl)cc2)OC[C@H]1OC(C)=O [Example 70] | 30 to 49% | – | – | 0.56 | > 800 mg/kg IP | –
Cc1cc(C)c(C(=O)c2cccc(O[C@@H]3OC[C@@H](O)[C@H](O)[C@H]3O)c2)c(C)c1 [Example 71] | 30 to 49% | – | – | 0.98 | > 800 mg/kg IP | –
CC(=O)O[C@@H]1[C@@H](OC(C)=O)[C@H](Oc2ccc(C(=O)c3ccc(Br)cc3)cc2)OC[C@H]1OC(C)=O [Example 75] | 30 to 49% | – | – | 0.32 | > 800 mg/kg IP | –
CC(=O)O[C@@H]1[C@@H](OC(C)=O)[C@H](Oc2ccc(C(=O)c3ccc(C)cc3)cc2)OC[C@H]1OC(C)=O [Example 76] | 30 to 49% | ++ (from 50 to 79%) | – | 0.38 | – | DL-0 (maximum non-lethal dose) ([1]; in vivo, ip): > 800 mg/kg IP
COc1cc(C(=O)c2ccc(O[C@@H]3OC[C@@H](OC(C)=O)[C@H](OC(C)=O)[C@H]3OC(C)=O)cc2)cc(OC)c1OC [Example 79] | – | – | – | – | > 800 mg/kg IP | inhibition in vivo at 100 mg/kg ([5]; Platelet): ≥ 40%
COc1ccc(C(=O)c2ccc(O[C@@H]3OC[C@@H](OC(C)=O)[C@H](OC(C)=O)[C@H]3OC(C)=O)cc2)cc1 [Example 81] | 30 to 49% | – | – | 0.64 | > 800 mg/kg IP | –
Cc1cc(C(=O)c2ccccc2C)ccc1O[C@@H]1OC[C@@H](O)[C@H](O)[C@H]1O [Example 85] | ≥ 50% | + (from 30 to 49%) | > 550 mg/kg | – | – | –
OC(c1ccc(O[C@@H]2OC[C@@H](O)[C@H](O)[C@H]2O)cc1)c1ccc(Cl)cc1Cl (stereo partly drawn) [Example 86] | 30 to 49% | – | > 350 mg/kg | 0.50 | – | –
O=[N+]([O-])c1cccc(C(O)c2ccc(O[C@@H]3OC[C@@H](O)[C@H](O)[C@H]3O)cc2)c1 (stereo partly drawn) [Example 87] | ≥ 50% | – | > 600 mg/kg | 0.35 | – | –
OC(c1ccc(O[C@@H]2OC[C@@H](O)[C@H](O)[C@H]2O)cc1)c1ccccc1Cl (stereo partly drawn) [Example 88] | ≥ 50% | – | – | 0.39 | > 800 mg/kg IP | –
Cc1ccccc1C(O)c1ccc(O[C@@H]2OC[C@@H](O)[C@H](O)[C@H]2O)cc1 (stereo partly drawn) [Example 89] | ≥ 50% | – | – | 0.88 | > 800 mg/kg IP | –
OC(c1ccc(Cl)cc1)c1ccc(O[C@@H]2OC[C@@H](O)[C@H](O)[C@H]2O)cc1 (stereo partly drawn) [Example 91] | 30 to 49% | +++ (higher than or equal to 80%) | – | 0.72 | – | DL-0 (maximum non-lethal dose) ([1]; in vivo, ip): > 800 mg/kg IP
OC(c1ccc(Cl)cc1)c1ccc(O[C@@H]2OC[C@@H](O)[C@H](O)[C@H]2O)cc1 (stereo partly drawn) [Example 94] | – | + (from 30 to 49%) | – | – | – | DL-50 (lethal dose involving the death of half of the animals) ([1]; I.P.): 330 mg/kg IP; Inhibition of platelet aggregation ([5]; 33 mg/kg IP): + (inhibition of 25 to 39%)
O=[N+]([O-])c1ccccc1C(O)c1ccc(O[C@@H]2OC[C@@H](O)[C@H](O)[C@H]2O)cc1 (stereo partly drawn) [Example 101] | ≥ 50% | + (from 30 to 49%) | – | 0.56 | – | DL-0 (maximum non-lethal dose) ([1]; in vivo, ip): > 800 mg/kg IP
Cc1cc(C(O)c2ccccc2C)ccc1O[C@@H]1OC[C@@H](O)[C@H](O)[C@H]1O (stereo partly drawn) [Example 105] | – | – | 450 mg/kg | – | – | inhibition in vivo at 45 mg/kg ([5]; Platelet, 45 mg/kg IP): 25 to 39%
CC(=O)O[C@@H]1[C@@H](OC(C)=O)[C@H](Oc2ccc(C(=O)c3cccc(C(F)(F)F)c3)cc2)OC[C@H]1OC(C)=O [Example 108] | 30 to 49% | + (from 30 to 49%) | – | 0.30 | – | DL-0 (maximum non-lethal dose) ([1]; in vivo, ip): > 800 mg/kg IP
CC(=O)O[C@@H]1[C@@H](OC(C)=O)[C@H](Oc2c(C)cc(C(=O)c3ccccc3Cl)cc2C)OC[C@H]1OC(C)=O [Example 113] | – | +++ (higher than or equal to 80%) | 630 mg/kg | – | – | inhibition in vivo at 63 mg/kg ([5]; Platelet, 63 mg/kg IP): ≥ 40%
CC(=O)N[C@H]1[C@H](Oc2c(C)cc(C(=O)c3ccc([N+](=O)[O-])cc3)cc2C)O[C@H](CO)[C@@H](O)[C@@H]1O [Example 119] | ≥ 50% | +++ (higher than or equal to 80%) | – | 0.47 | – | DL-0 (maximum non-lethal dose) ([1]; in vivo, ip): > 800 mg/kg IP
CC(=O)N[C@H]1[C@H](Oc2ccc(C(O)c3ccc([N+](=O)[O-])cc3)cc2)O[C@H](CO)[C@@H](O)[C@@H]1O (stereo partly drawn) [Example 123] | 30 to 49% | ++ (from 50 to 79%) | – | – | – | DL-0 (maximum non-lethal dose) ([1]; in vivo, ip): > 800 mg/kg IP
O=C(c1ccc(O[C@@H]2OC[C@@H](O)[C@H](O)[C@H]2O)cc1)c1ccccc1O [Example 125] | 30 to 49% | + (from 30 to 49%) | 1700 mg/kg | – | – | –
OC[C@H]1O[C@@H](Oc2ccc(C(O)c3ccc(Cl)cc3)cc2)[C@H](O)[C@@H](O)[C@@H]1O (stereo partly drawn) [Example 131] | 30 to 49% | ++ (from 50 to 79%) | 730 mg/kg | – | – | –
